Reference: ChEMBL document CHEMBL1201862, “PubChem BioAssay data set” (2004)
Calls of active or inactive are those of the source.

Columns and labels:
[1] = molecular target: G-protein coupled receptor 55 (Homo sapiens, UniProt Q9Y2T6); assay: selective activators of receptor GPR55 – imaging, U2OS cells, beta-arrestin-GFP redistribution, primary screen (AID 1961); format: functional
Cytochrome P450 3A4 = Cytochrome P450 3A4 (Homo sapiens, UniProt P08684); settings: Potency;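 note: confirmatory qHTS run detecting inhibitors and substrates of CYP3A4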
[2] = glucagon-like peptide-1 release potency in STC-1, concentration-response, half-maximal inhibitory concentration in the STC-1 line (AID 1117345); format: functional, cell-based
[3] = IC50 of insulin release inhibition, rat insulinoma INS-1E line, 5 mM glucose, cell-based (AID 1117331); format: functional
[4] = Potency on glucagon-like peptide 1 release, dose-response in NCI-H716 cell line, half maximal inhibitory concentration (AID 1117344); format: functional, cell-based
Cytochrome P450 2C9 = Cytochrome P450 2C9 (Homo sapiens, UniProt P11712)
[5] = toxicity toward HepG2 liver cells – cell-based, plate reader, cherry-pick, antagonist series, cytotoxicity control, dose response (AID 743416); format: functional
[6] = viability loss in HEK293 cells – cell-based, plate reader, cherry-picked samples, cytotoxicity control, dose response (AID 743446); format: functional
[7] = A549 cell cytotoxicity, dose response, cytotoxicity control, plate reader, cherry-pick, antagonist series (AID 743412); format: functional, cell-based
[8] = non-specific 3'UTR reporter inhibition in Clone20-Shn3RL – cell-based, Renilla luciferase, cherry-picked, counter-screen for Shn3 inhibitor project, dose response (AID 624133); format: functional
[9] = blockers of bursicon-stimulated LGR2 cAMP reporter – cell-based, HEK293, CRE-luciferase reporter, cherry pick, set 2, dose response (AID 743343); format: functional;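 note: transfected cells were stimulated with diluted bursicon conditioned medium after compound addition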
[10] = reduction of Shn3 3'UTR-driven luciferase in osteoblasts – cell-based, Clone20 osteoblasts, firefly luciferase, cherry-picked, dose response (AID 624132); format: functional;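 note: firefly luciferase luminescence from reporter carrying the Shn3 3'UTR in osteoblasts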
[11] = loss of viability in HepG2 cells – cell-based, CellTiter-Glo, cherry-picked, cytotoxicity control for Shn3 inhibitor project, dose response (AID 624134); format: functional
[12] = blockade of melanocortin 4 receptor signaling – cell-based, plate reader, cherry pick, counter-screen for LGR2 antagonist project, dose response (AID 743444); format: functional;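 note: transfected HEK 293 cells stimulated with alpha-MSH peptide; potency of inhibitors of the alpha-MSH evoked signal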
Protein Tat = molecular target: T1, Protein Tat (Human immunodeficiency virus type 1 group M subtype B (isolate HXB2)(HIV-1), UniProt P04608); format: functional;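 note: tat binding to TAR RNA read out by fluorescence polarization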
T1 sequence (P04608 whole entry): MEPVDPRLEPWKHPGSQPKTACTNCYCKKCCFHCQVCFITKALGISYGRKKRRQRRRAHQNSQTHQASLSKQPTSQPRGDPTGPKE

[13] = molecular target: T2, Bifunctional protein GlmU (Mycobacterium tuberculosis, UniProt P9WMN3); assay: Inhibitors of Mycobacterial Glucosamine-1-phosphate acetyl transferase (GlmU). Secondary screen.; design: species or system Mycobacterium tuberculosis H37Rv
T2 sequence (P9WMN3 whole entry): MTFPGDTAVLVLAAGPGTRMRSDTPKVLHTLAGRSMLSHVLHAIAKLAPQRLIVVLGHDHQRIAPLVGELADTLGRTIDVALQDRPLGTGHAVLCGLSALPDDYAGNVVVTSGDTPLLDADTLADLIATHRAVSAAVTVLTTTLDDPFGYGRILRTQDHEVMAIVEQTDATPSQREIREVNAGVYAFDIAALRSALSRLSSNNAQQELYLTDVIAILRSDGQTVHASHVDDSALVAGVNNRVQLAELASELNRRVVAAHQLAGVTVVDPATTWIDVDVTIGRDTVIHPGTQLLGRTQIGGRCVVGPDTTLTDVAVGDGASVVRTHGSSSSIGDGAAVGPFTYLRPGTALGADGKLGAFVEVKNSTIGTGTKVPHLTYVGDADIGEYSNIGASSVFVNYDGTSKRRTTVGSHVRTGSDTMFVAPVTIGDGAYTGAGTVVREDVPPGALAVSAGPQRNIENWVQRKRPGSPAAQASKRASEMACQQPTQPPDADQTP

[14] = molecular target: Peroxisome proliferator-activated receptor gamma/Nuclear receptor coactivator 1 (Homo sapiens, UniProt P37231); format: functional;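 note: agonist potency as compounds enhance coactivator SRC-1 recruitment to PPARgamma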
[15] = molecular target: Peroxisome proliferator-activated receptor gamma/Nuclear receptor coactivator 3 (Homo sapiens, UniProt P37231); format: functional;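 note: agonist potency for raising coactivator recruitment to the receptor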
[16] = molecular target: Peroxisome proliferator-activated receptor gamma/Nuclear receptor coactivator 2 (Homo sapiens, UniProt P37231); format: functional;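 note: agonist potency for raising coactivator recruitment to the receptor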
[17] = Luminescence Cell-Based Dose Response to Identify Activators of 5'UTR Stem-Loop Driven Prion Protein mRNA Translation in H4-C Neuroglioblastoma Cells. [Related pubchem assays: 1829 (Project Summary), 1814 (Primary HTS)]; format: functional
[18] = Luminescence Cell-Based Dose Response to Identify Activators of Luciferase Translation or Activity in H4-C Neuroglioblastoma Cells. [Related pubchem assays: 1829 (Project Summary), 1814 (Primary HTS)]; format: functional
[19] = Luminescence Cell-Based Dose Confirmation to Identify Activators of 5'UTR Stem-Loop Driven Alpha-Synuclein mRNA Translation in H4 Neuroglioblastoma Cells. [Related pubchem assays: 1829 (Project Summary), 1814 (Primary HTS)]; format: functional
[20] = Luminescence Cell-Based Dose Response HTS to Identify Activators of Luciferase Translation or Activity in H4 […] Cells. [Related pubchem assays: 1829 (Project Summary), 1814 (Primary HTS)]; format: functional

Chain of Cytochrome P450 3A4 (P08684 whole entry): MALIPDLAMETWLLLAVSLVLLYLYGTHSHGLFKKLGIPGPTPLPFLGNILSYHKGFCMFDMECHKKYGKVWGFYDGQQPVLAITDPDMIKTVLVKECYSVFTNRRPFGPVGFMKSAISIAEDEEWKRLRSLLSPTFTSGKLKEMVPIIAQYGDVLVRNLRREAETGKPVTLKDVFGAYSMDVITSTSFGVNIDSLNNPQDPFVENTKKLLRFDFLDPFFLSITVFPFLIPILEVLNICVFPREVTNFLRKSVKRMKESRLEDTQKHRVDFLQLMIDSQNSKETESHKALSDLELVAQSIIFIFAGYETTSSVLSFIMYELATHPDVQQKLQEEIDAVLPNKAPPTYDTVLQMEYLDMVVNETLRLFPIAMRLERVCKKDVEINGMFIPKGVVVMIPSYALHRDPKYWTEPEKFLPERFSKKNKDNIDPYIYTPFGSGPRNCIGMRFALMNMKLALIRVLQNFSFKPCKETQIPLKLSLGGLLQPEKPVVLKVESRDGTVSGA
Chain of Peroxisome proliferator-activated receptor gamma/Nuclear receptor coactivator 1 (P37231 whole entry): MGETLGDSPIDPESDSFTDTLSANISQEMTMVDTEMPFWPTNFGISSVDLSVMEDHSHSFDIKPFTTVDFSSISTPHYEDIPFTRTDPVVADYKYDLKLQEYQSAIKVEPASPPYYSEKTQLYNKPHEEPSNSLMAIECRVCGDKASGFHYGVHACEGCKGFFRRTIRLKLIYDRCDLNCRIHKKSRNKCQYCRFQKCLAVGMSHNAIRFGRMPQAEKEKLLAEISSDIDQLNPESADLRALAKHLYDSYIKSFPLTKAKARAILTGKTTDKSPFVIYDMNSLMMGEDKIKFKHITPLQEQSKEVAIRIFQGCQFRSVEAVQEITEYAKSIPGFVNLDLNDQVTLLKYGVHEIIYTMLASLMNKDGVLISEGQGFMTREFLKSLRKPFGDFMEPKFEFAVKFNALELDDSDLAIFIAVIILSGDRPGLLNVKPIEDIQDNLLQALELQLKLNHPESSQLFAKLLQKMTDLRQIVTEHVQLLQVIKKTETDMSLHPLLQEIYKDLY
Chain of Peroxisome proliferator-activated receptor gamma/Nuclear receptor coactivator 1 (Q15788 whole entry, further chain): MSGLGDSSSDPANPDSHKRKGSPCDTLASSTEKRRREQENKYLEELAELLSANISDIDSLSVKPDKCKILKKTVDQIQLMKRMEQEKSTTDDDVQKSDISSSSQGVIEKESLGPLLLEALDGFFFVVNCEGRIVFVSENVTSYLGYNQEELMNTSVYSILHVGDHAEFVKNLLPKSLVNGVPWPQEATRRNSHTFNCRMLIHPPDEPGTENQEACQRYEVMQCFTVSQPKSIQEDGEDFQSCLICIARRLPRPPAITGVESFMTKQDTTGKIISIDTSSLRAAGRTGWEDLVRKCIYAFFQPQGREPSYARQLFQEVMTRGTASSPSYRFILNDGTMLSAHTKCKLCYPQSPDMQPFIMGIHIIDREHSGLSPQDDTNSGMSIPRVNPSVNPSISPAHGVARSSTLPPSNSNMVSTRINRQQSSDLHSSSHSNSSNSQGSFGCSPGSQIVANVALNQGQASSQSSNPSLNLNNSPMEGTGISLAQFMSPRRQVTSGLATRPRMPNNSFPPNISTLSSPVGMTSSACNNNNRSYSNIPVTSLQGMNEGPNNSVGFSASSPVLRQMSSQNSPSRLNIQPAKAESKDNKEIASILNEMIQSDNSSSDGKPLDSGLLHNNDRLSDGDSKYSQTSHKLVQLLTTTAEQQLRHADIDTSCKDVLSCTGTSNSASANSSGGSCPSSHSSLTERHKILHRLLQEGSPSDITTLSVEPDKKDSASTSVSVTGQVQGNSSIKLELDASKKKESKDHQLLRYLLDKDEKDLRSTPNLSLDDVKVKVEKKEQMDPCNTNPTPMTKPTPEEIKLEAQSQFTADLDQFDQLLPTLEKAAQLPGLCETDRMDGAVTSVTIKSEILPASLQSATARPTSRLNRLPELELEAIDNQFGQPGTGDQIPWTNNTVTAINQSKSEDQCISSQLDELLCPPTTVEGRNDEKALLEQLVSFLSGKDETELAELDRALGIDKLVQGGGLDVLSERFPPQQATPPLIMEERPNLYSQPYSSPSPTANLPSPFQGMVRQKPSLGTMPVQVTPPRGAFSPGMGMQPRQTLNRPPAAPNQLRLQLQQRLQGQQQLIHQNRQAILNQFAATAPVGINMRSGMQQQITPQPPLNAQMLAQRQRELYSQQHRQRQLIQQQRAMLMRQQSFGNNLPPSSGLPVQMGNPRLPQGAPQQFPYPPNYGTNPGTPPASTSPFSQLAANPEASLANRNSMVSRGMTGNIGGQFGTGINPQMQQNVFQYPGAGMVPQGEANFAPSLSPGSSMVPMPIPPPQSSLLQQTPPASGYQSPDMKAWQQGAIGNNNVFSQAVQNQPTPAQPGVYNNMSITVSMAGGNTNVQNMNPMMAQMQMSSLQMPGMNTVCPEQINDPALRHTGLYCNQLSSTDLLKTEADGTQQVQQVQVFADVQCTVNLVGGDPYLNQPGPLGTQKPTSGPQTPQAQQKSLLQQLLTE
Chain of Peroxisome proliferator-activated receptor gamma/Nuclear receptor coactivator 3 (P37231 whole entry): as the sequence (P37231 whole entry) above
Chain of Peroxisome proliferator-activated receptor gamma/Nuclear receptor coactivator 3 (Q9Y6Q9 whole entry, further chain): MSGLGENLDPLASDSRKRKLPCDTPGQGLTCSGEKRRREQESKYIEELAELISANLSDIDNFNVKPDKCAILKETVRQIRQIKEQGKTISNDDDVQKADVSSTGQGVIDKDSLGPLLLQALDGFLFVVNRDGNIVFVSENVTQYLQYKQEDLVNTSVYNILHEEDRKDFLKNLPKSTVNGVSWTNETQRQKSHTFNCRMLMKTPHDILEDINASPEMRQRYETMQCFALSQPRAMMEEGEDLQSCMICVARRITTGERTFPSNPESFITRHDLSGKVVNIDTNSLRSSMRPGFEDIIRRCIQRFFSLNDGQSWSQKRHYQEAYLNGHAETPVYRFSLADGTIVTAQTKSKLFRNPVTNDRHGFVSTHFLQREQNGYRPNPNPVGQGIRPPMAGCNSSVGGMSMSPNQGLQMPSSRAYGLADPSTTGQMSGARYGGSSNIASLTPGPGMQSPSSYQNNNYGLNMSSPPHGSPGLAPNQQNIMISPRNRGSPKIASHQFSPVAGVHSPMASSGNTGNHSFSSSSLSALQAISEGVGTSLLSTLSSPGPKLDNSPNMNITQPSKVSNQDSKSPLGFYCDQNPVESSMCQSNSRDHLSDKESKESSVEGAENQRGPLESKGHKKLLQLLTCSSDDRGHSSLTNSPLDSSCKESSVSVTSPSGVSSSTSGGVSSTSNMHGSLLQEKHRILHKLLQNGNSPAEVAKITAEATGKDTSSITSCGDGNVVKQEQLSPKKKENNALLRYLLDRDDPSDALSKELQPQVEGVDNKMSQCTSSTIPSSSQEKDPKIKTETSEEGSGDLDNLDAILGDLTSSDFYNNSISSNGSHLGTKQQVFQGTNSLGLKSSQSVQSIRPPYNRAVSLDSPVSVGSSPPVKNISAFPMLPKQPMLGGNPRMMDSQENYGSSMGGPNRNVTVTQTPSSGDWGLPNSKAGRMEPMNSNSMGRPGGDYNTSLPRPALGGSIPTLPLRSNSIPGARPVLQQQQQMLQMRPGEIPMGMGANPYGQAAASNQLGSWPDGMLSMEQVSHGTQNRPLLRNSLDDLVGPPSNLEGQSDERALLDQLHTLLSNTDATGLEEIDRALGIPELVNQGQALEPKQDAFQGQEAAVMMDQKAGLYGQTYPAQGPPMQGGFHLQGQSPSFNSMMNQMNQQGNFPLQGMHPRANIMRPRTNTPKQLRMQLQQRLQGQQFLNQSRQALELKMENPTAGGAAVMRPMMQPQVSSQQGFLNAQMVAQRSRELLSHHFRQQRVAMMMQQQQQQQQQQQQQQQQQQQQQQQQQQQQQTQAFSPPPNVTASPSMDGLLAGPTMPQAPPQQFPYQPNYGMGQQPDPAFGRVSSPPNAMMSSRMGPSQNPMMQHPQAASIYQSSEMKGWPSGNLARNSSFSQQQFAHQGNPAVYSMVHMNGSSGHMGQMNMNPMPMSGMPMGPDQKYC
Chain of G-protein coupled receptor 55 (Q9Y2T6 whole entry): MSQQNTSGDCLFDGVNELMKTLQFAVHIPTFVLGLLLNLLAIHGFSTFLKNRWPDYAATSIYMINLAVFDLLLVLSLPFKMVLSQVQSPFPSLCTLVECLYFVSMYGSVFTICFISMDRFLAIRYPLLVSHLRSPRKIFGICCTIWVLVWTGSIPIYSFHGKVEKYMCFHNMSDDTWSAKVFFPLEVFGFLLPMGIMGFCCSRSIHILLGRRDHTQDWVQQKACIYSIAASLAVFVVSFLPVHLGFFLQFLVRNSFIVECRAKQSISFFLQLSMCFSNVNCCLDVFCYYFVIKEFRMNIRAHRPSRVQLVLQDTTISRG

SMILES: CC1CCN(Cc2c(C(=O)N/N=C/c3ccc(OC(C)C)cc3)nnn2-c2nonc2N)CC1
- EC50 [1]: 3.41 µM (active)

SMILES: C=C(C)C(O)/C=C/CCCCCCC (stereo not drawn)
- AC50 (Cytochrome P450 3A4): 3.98 µM (inconclusive)

SMILES: Fc1cc(Br)ccc1CBr
- IC50 [2]: > 40 µM (inactive)
- IC50 [3]: > 33.3 µM (inactive)
- IC50 [4]: > 40 µM (inactive)

SMILES: COc1ccc2c(c1)C(=O)N(CCc1ccc(S(=O)(=O)NC(=O)NC3CCCCC3)cc1)C(=O)C2(C)C [GLIQUIDONE]
- IC50 [3]: 0.23 µM (active)
- AC50 (Cytochrome P450 2C9): 12.6 µM (inconclusive)

SMILES: CCCCNc1c(-c2cccc(-c3ccc(OC)cc3)c2)nc2cc(C)ccn12
- AC50 [5]: 21.9 µM (active)
- AC50 [6]: 14.5 µM (active)
- AC50 [7]: 17.7 µM (active)
- AC50 [8]: 10.6 µM (active)
- AC50 [9]: 8.28 µM (active)
- AC50 [10]: 12.1 µM (active)
- AC50 [11]: 38.9 µM (active)
- AC50 [12]: 10.9 µM (active)

SMILES: COc1ccc2cc(C3C(C#N)=C(N)OC(C)=C3C(C)=O)c(Cl)nc2c1 (stereo not drawn)
- IC50 (Protein Tat): > 100 µM (active)

SMILES: FC(F)(F)C(F)(F)C(F)(F)C(F)(F)C(F)(F)C(F)(F)C(F)(F)C(F)(F)Br [PERFLUBRON]
- IC50 [2]: > 40 µM (inactive)
- IC50 [3]: > 33.3 µM (inactive)
- IC50 [4]: > 40 µM (inactive)

SMILES: N#C/C(=C\c1ccc(-c2ccc(C(=O)O)cc2)o1)c1nc2ccccc2[nH]1
- IC50 [13]: 51.3 µM (active)

SMILES: CC(=O)c1cccc(NC(=O)c2cc3ccccn3n2)c1
- EC50 [14]: > 79.4 µM (not active)
- EC50 [15]: > 79.4 µM (not active)
- EC50 [16]: > 79.4 µM (not active)

SMILES: COc1ccc(-c2nc3c(c4c2CC(C)OC4)CN(CCC(C)C)CC3)cc1 (stereo not drawn)
- AC50 (Cytochrome P450 3A4): 3.16 µM (inconclusive)

SMILES: CC(=O)c1cnc2cc(-c3ccc(C)cc3)nn2c1C
- EC50 [17]: 0.223 µM (active)
- EC50 [18]: 0.319 µM (active)
- EC50 [19]: 0.297 µM (active)
- EC50 [20]: < 0.1 µM (active)
